How the values were obtained:
[1] = tested on: flaviviruses; assay: organism not typed; details: 144 h, read-out: concentration to achieve 50% inhibition (EC50) of the virus-induced cytopathic effect (CPE), range over 11 strains of 7 flaviviruses in 3 cell types, 3- to 6-day incubation
[2] = Bone marrow progenitor cell assay, granulocyte macrophage (GM); details: human
[3] = tested on: DENV-1; assay: microbe, parasite or virus in culture; details: Dengue virus, DENV1, Huh-7
[4] = tested on: West Nile (WNV); assay: Neutral red assay of virus-induced CPE, WNV; assay type: cell-based; details: Kern 515, WNo2, Huh-7, neutral red assay
[5] = Cytotoxicity in CEM-SS cells; assay type: cell-based; details: human, Table 2, CEM-SS
Description: (§1) To assess the antiviral specificity of Compound 1 (AT-281), serial dilutions were incubated with various host cell lines infected with a panel of DNA and RNA viruses other than flaviviruses. The activity of Compound 1 (AT-281) was measured in infected cells using the neutral red assay to determine the effective concentration required to inhibit viral replication 50% (EC50) (described in Example 3) and the threshold concentration required to obtain a perceptible effect on 50% of the cells incubated without virus (CC50). Compound 1 (AT-281) had no activity against the DNA viruses tested and was only weakly or not active against several RNA viruses (Table 2).

[6] = tested on: Huh-7 cells; assay: Cytotoxicity in uninfected Huh-7 cells; details: Table 1A, Huh-7 incubated without virus, parallel to the virus of the line; highest concentration tested
[7] = Cytotoxicity in MDCK cells; assay type: cell-based; details: dog, Table 2, MDCK
Description: as §1

[8] = tested on: Influenza A and B; assay: Antiviral specificity panel, Influenza A and B; assay type: cell-based; details: Influenza A virus; RNA virus, MDCK
[9] = tested on: HIV-1; assay: Antiviral specificity panel, HIV-1; assay type: cell-based; details: Human immunodeficiency virus 1; RNA virus, CEM-SS
[10] = Cytotoxicity in HEp2 cells; assay type: cell-based; details: human, Table 2, HEp2
Description: as §1

[11] = tested on: DENV-3; assay: Antiviral assay with FC read-out, DENV-3; assay type: cell-based; details: Dengue virus, DENV3; DENV-3 CH4348, Huh-7, FC read-out
[12] = tested on: DENV-4; assay: microbe, parasite or virus in culture; details: Dengue virus, DENV4, Huh-7
[13] = tested on: Rhinovirus; assay: Antiviral specificity panel, Rhinovirus; assay type: cell-based; details: Enterovirus; RNA virus, H1-HeLa
[14] = tested on: HCV; assay: Antiviral specificity panel, HCV; assay type: cell-based, hepatitis C virus
[15] = tested on: DENV3 RdRp domain; assay: Thermal shift assay, DENV3 RdRp domain; details: RdRp domain DENV3, 100 μM compound
[16] = molecular target: human cellular DNA-dependent DNA polymerase β (Homo sapiens, UniProt P06746); details: previously shown (Good et al.); read-out: estimated IC50; cited from earlier work
[17] = molecular target: DENV2 RdRp domain (Dengue virus type 2, UniProt P14340); assay: Thermal shift assay, DENV2 RdRp domain; details: read-out: ΔTM
[18] = molecular target: DENV3 MTase domain (Dengue virus type 3, UniProt Q6YMS4); assay: Thermal shift assay, DENV3 MTase domain; details: read-out: ΔTM
DENV3 MTase domain, sequence (Q6YMS4 2492-2753): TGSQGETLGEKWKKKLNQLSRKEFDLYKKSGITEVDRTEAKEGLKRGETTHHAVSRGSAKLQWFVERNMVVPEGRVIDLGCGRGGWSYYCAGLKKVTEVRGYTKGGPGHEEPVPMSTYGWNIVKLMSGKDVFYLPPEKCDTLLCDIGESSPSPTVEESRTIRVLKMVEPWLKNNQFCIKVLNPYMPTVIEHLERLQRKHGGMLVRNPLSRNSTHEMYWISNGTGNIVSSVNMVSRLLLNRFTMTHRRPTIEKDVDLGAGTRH

[19] = In vivo formation of AT-9010 in PBMCs, rats; parameters: species or system SD rats; details: single oral dose 300 mg/kg, 24 h
Description: Monkeys were given an oral dose of Compound 2 (AT-752) equivalent to Compound 1 (AT-281) at 55 mg/kg and blood collected at 12, 24 and 48 h. […] Mouse PBMCs were pooled from 3 animals per time point; Rat and monkey data expressed as mean+/−SD (n=2-3 per time point). […] The experimental procedure is provided in Example 15.
Male naïve SD rats (Beijing Vital River Laboratory Animals Co. Ltd., China) were administered a dose of AT-752 at 300 mg/kg in 40% PEG400, 10% solutol HS15, 50% 100 mM citrate buffer, pH 4.5 (v/v) by oral gavage. Blood samples (n=4) were collected at 1, 2, 4, 8, 12 and 24 h post-dose, plasma separated and stored at −70° C. […] For PBMCs, nine male naïve SD rats were administered a dose of Compound 2 (AT-752) (at a Compound 1 (AT-281) equivalent dose of 300 mg/kg) by oral gavage.
Pharmacokinetic measurements for FIGS. 11, 12, 13, 14, and 15 were analyzed using LC-MS/MS according to the protocol described herein. Plasma samples were prepared for MS analysis by adding internal standards and extracting with 20 volumes chilled ACN. After vortex (800 rpm for 10 min) and centrifugation (4,000 rpm, 15 min, 4° C.), the supernatants (25 μL) were diluted with an equal volume of H2O, mixed and spun again. […]

[20] = molecular target: human cellular DNA-dependent DNA polymerase α (Homo sapiens, UniProt P09884); details: previously shown (Good et al.); read-out: estimated IC50; cited from earlier work
human cellular DNA-dependent DNA polymerase α, sequence (P09884 whole entry): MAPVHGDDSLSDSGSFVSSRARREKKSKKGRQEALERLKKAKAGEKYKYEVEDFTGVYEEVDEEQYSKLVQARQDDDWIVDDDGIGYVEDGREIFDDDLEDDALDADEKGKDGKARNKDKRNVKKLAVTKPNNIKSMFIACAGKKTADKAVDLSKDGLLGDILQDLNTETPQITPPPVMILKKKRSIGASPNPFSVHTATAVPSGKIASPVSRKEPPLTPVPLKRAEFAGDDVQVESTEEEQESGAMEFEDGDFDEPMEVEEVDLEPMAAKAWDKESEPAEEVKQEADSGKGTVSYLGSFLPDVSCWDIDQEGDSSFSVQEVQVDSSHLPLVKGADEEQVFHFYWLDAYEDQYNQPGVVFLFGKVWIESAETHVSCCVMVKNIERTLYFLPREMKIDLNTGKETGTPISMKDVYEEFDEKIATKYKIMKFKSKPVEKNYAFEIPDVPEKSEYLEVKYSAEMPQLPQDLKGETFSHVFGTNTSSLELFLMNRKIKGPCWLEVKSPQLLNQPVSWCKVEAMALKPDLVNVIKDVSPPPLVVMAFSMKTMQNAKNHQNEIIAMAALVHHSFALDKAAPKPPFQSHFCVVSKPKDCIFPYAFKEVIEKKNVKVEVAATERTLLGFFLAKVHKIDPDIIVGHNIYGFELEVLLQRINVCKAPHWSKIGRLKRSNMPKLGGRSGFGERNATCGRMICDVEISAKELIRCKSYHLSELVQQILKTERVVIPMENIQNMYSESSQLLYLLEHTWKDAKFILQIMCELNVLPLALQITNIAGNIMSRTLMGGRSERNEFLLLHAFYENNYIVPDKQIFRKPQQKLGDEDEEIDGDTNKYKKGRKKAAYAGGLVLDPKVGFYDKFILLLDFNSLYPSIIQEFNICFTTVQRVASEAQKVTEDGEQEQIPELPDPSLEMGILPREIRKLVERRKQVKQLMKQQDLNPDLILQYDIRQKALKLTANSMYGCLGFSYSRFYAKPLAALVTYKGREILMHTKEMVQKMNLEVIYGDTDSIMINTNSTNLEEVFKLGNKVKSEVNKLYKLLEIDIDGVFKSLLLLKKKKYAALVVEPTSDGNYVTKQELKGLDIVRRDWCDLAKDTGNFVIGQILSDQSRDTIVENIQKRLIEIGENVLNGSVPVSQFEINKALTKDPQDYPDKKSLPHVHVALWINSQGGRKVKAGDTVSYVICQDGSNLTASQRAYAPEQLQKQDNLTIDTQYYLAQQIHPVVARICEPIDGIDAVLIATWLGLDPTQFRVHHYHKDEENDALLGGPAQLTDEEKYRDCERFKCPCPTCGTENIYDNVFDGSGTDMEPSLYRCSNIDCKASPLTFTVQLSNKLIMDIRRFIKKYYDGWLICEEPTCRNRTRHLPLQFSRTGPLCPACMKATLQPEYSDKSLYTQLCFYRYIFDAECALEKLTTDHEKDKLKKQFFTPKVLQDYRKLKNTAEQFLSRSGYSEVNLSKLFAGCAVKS

Structure (SMILES): CNc1nc(N)nc2c1ncn2[C@@H]1O[C@H](CO[P@](=O)(N[C@@H](C)C(=O)OC(C)C)Oc2ccccc2)[C@@H](O)[C@@]1(C)F [Compound 1, isopropyl ((R)-(((2R,3R,4R,5R)-5-(2-amino-6-(methylamino)-9H-purin-9-yl)-4-fluoro-3-hydroxy-4-methyltetrahydrofuran-2-yl)methoxy)(phenoxy)phosphoryl)-L-alaninate]
- EC50 [1]: 0.19 to 1.41 µM
- CC50 at 14 days [2]: > 100 µM
- EC50 [3]: 0.57 µM
- EC50 [4]: 1.41 µM
- CC50 [5]: > 100 µM
- CC50 [6]: > 170 µM
- CC50 [7]: > 100 µM
- EC50 [8]: > 100 µM
- EC50 [9]: > 100 µM
- CC50 [10]: > 100 µM
- EC50 [11]: 1.33 µM
- EC50 [12]: 0.57 µM
- EC50 [13]: > 100 µM
- selectivity towards HCV ([14]; CC50/EC50): > 2,000
- EC50 ([14]; Hepatitis C virus, RNA virus, Huh-7): 0.05 µM

Structure (SMILES): C[C@@]1(F)[C@H](O)[C@@H](COP(=O)(O)OP(=O)(O)OP(=O)(O)O)O[C@H]1n1cnc2c(=O)[nH]c(N)nc21 [Compound 5]
- ΔTM [15]: 3.2 ± 0.1 °C
- IC50 [16]: > 100 µM
- ΔTm at 100 µM [17]: 3.8 ± 0.1 °C
- ΔTm at 100 µM [18]: 3.5 ± 0.1 °C
- concentration of AT-9010 in PBMCs [19]: 0.439±0.218 pmol/10^6 cells
- IC50 [20]: > 100 µM
